Patent US20100222421A1, “Usage of Baicalein in the Preparation of a Pharmaceutical Composition for the Treatment of Traumatic Brain Injury” (National Defense Medical Center, priority 2009, published 2010)

System: TNF-α-positive cells
Assay: Immunohistochemistry, TNF-α-positive cells after CCI injury
Assay type: in vivo, rat
Conditions: single-dose 30 mg kg^-1 i.p.; cortical tissue adjacent to contusion core, 1 day post-injury
Protocol: A previously described CCI injury procedure was utilized (Chen et al., 2003). Male Sprague-Dawley rats, which have body weight of 250-300 g, were anaesthetized with sodium pentobarbital (i.p.; 50 mgkg^−1; Rhone Merieux, Harlow, UK) and placed in a stereotaxic frame. A 5-mm craniotomy was performed over the left parietal cortex, centered on the coronal suture and 3 mm lateral to the sagittal suture. Considerable care was taken to avoid injury to the underlying dura. Injury was made using a pneumatic piston with a rounded metal tip (2.5 mm diameter) that was angled 22.5° C. to the vertical so that the tip was perpendicular with the brain surface at the centre of the craniotomy. A velocity of 4 ms^−1 and a deformation depth 2 mm below the dura were used. The bone flap was immediately replaced and sealed, and the scalp was closed with sutures. Body temperature was monitored throughout the surgery by a rectal probe; temperature was maintained at 37.0±0.5° C. using a heated pad. […] Testing after injury was as follows: (1) real-time quantitative RT-PCR analysis for TNF-α, IL-1β and IL-6 mRNA expression at 6 h post-injury (n=7 for each group); (2) FluoroJade B (FJB) staining, TNF-α, IL-1β and IL-6 immunohistochemistry, as well as ELISA at 24 h post-injury to assess degenerative neurons and to determine cytokine expression (n=7 for each group). […]

With `O=c1cc(-c2ccccc2)oc2cc(O)c(O)c(O)c12` [baicalein] the “reduction in TNF-α-positive cells relative to vehicle” value was 37%.
